Measurements: ChEMBL document CHEMBL2321872, “Synthesis and antimycobacterial activity of 2,1'-dihydropyridomycins” (ACS Med Chem Lett, 2013)
≈ marks a conversion by molar mass, not a printed value.

system: Mycobacterium tuberculosis; assay: Antimycobacterial activity against Mycobacterium tuberculosis H37Rv assessed as growth inhibition after 7 days by resazurin method; format: functional; conditions: 168 h

Going from CC(C)[C@H]1OC(=O)[C@H](C)[C@H](O)[C@H](Cc2cccnc2)NC(=O)[C@@H](NC(=O)c2ncccc2O)[C@@H](C)OC1=O to CC(C)[C@@H]1OC(=O)[C@H](C)[C@H](O)[C@H](Cc2cccnc2)NC(=O)[C@@H](NC(=O)c2ncccc2O)[C@@H](C)OC1=O, the MIC rises from 1.56 µg/mL (≈ 2.95 µM) to 12.5 µg/mL (≈ 23.6 µM) (8-fold).

CC/C(C)=C1\OC(=O)[C@H](C)[C@H](O)[C@H](Cc2cccnc2)NC(=O)[C@@H](NC(=O)c2ncccc2O)[C@@H](C)OC1=O [PYRIDOMYCIN] was tested, and the MIC was 0.39 µg/mL (≈ 0.721 µM).
